Measured values: PMC11591307, “An RGD-Conjugated Prodrug Nanoparticle with Blood–Brain–Barrier Penetrability for Neuroprotection Against Cerebral Ischemia–Reperfusion Injury” (Antioxidants, 2024)
Residues, ends and D or L forms follow the SMILES beside them. *: point of attachment. X1 = C[C@@H]1[C@H]2[C@H](O[C@@H]3O[C@H](CO)[C@@H](O)[C@H](O)[C@H]3O)OC=C(C(=O)*)[C@H]2C[C@@H]1O

Assays:
BEnd.3 cells [1] = experiment: MTT cytotoxicity assay on BEnd.3 cells; type: cell-based, Mouse; details: 24 h treatment, all three concentrations, Figure S6
Protocol: Mouse brain microvascular endothelial cells (BEnd.3) were cultured in DMEM medium containing 10% FBS and maintained at 37 °C in a humidified atmosphere with 5% CO2. Drug solutions were prepared by diluting in PBS to the desired concentrations. Cells were seeded at a density of 4000 cells per well in 96-well plates. Once the cells had adhered, 25 μL of LA-1 or loganin solutions at varying concentrations were added to each well, followed by a 24 h incubation. BEnd.3 cells were treated with 3.12 or 6.25 μM of LA-1 or loganin for 24 h, followed by exposure to 200 μM tertiary-butylhydroperoxide (TBHP) for 4 h to induce oxidative stress. After the treatments, 25 μL of MTT solution (5 mg/mL) was added to each well, and the cells were incubated for an additional 4 h. The supernatant was then carefully removed, and the formazan crystals were dissolved in 150 μL of DMSO. Plates were shaken at room temperature for 15 min, and absorbance was measured at 490/570 nm using a microplate reader (Molecular Devices, SpectraMax ABS, San Jose, CA, USA). Cell viability = (Absorbance (drug well))/(Absorbance (control well)) × 100%

BEnd.3 cells [2] = experiment: Cellular uptake in BEnd.3 cells (LC-MS/MS); type: in vitro ADME, Mouse; details: 6.25 μM; for Intracellular amount over time: 3 or 6 h incubation
Protocol: BEnd.3 cells were seeded in 60mm dishes at 2 × 10⁶ cells/mL, with 5 mL of DMEM containing 10% FBS. After 12 h, the medium was replaced with 5 mL fresh medium, followed by 1 mL of 6.25 μM LA-1 solution. Cells were incubated for 3 or 6 h, washed twice with PBS, and harvested using 1 mL of HPLC-grade methanol. After vortexing for 2 min and centrifuging at 13,300 rpm for 5 min (6766-HS corning® High Speed Microcentrifuge, Corning, NY, USA), the supernatant was concentrated and reconstituted with 200 μL methanol. Samples were centrifuged again at 13,300 rpm for 10 min, and the supernatant was analyzed via LC–MS (ACQUITY UPLC I-Class/Xevo TQ-XS, Waters, Milford, MA, USA). Standard curves were prepared by serial dilutions of HPLC-grade methanol with concentrations ranging from 1 μg/mL to 100 pg/mL for each LA-1.

BEnd.3 cells [3] = experiment: Impact of integrin αvβ3 inhibitor c(RGDfK) on LA-1 uptake in BEnd.3 cells; type: in vitro ADME, Mouse; details: BEnd.3 cells pretreated 1 h with 100 μM c(RGDfK) (method: 20 nM), then 6.25 μM compound for 3 or 6 h, LC-MS/MS
Protocol: BEnd.3 cells were seeded at 2 × 10⁶ cells/mL in […], with 5 mL DMEM containing 10% FBS. After 12 h, the medium was replaced with 5 mL fresh medium and 1 mL 20 nM c(RGDfK). After 1 h, 1 mL of 6.25 μM compound solution was added, followed by incubation for 3 or 6 h. Cells were washed twice with PBS, collected in 1 mL of HPLC-grade methanol, and centrifuged at 13,300 rpm for 5 min (6766-HS corning® High Speed Microcentrifuge, Corning, NY, USA). The supernatant was concentrated and reconstituted in 200 μL methanol before a final 10 min centrifugation. The supernatant was then used for LC–MS/MS (ACQUITY UPLC I-Class/Xevo TQ-XS, Waters, Milford, MA, USA) analysis.

[4] = In vivo pharmacokinetic study, plasma; design: species or system rat; details: SD rats, intravenous tail injection 30 mg/kg, LC-MS/MS, n = 3
Protocol: We purchased male Sprague-Dawley (SD) rats weighing between 200 and 220 g, which had been catheterized in the jugular vein, from Beijing Sinocon Pharmaceutical Technology Co., Ltd. (Beijing, China). The rats were divided into two groups: LA-1 group and loganin group, with three rats in each group. First, 200 μL of whole blood was collected from each rat at time point zero as a blank control. Subsequently, LA-1 and loganin were administered tail via injection at a dose of 30 mg/kg, dissolved in 0.9% saline. For the pharmacokinetics of the intravenously administered drugs, blood samples of 200 μL were collected from the rats at 5, 15, 30, 45 min, 1, 1.5, 2, 3, 6, 8, 12, and 24 h, using heparinized anticoagulation tubes for processing. After each blood collection, 200 μL of perfusion solution was injected into the rats through the catheter to maintain their physiological status. To obtain the rat plasma, the samples were centrifuged immediately at 3500 rpm for 10 min (5810R) after collection. Methanol (300 μL) was added to plasma samples (100 μL) to precipitate plasma proteins, then rotary evaporation at 35 °C was used to remove methanol from the samples. The LA-1 and loganin were quantified by LC–MS/MS analysis (ACQUITY UPLC I-Class/Xevo TQ-XS, Waters, Milford, MA, USA).

[5] = Intra-brain distribution after ischemic injury; type: in vivo, rat; details: MCAO rats, LA-1 10 mg/kg vs loganin 30 mg/kg i.v., 3 h after administration, right hemisphere, LC-MS/MS, n = 3
Protocol: To investigate the distribution of LA-1 and loganin within the brain, the experimental protocol was as follows: First, the rats were subjected to 2 h of induced ischemia, after which the filament was removed to allow for reperfusion. Subsequently, LA-1 (10 mg/kg) and loganin (30 mg/kg) were administered via tail vein injection. […] At the 3 h time point, the rats were anesthetized, perfused with saline via the heart, and then euthanized to collect brain tissue. The brain tissue was divided into left and right hemispheres, with the right hemisphere representing the ischemic region. The right hemisphere was placed into a 5 mL centrifuge tube, and 600 μL of pre-chilled PBS was added, followed by homogenization on ice. A 200 μL aliquot of the homogenate was combined with 200 μL of chromatography-grade methanol and 200 μL of chromatography-grade acetonitrile, and subjected to ultrasonic treatment for 5 min. The mixture was then centrifuged at 13,000 rpm for 10 min at 4 °C, and the supernatant was collected for concentration. After concentration, 200 μL of chromatography-grade methanol was added for reconstitution, followed by another round of high-speed centrifugation to obtain the supernatant. Finally, the target molecules were quantified using LC–MS/MS (ACQUITY UPLC I-Class/Xevo TQ-XS, Waters, Milford, MA, USA). […]

[6] = H&E staining of heart, liver, spleen and kidney (biosafety in vivo); design: species or system rat; details: Figure S7
Protocol: (§1) Fresh brain, heart, liver, spleen, and kidney tissues from rats were fixed in 4% paraformaldehyde, dehydrated, embedded in paraffin, and sectioned into 4 µm slices. For HE staining, the sections were deparaffinized using a dewaxing agent (G1128, Solarbio, Beijing, China), rehydrated in ethanol of various concentrations, stained with hematoxylin and eosin, dehydrated, and sealed with neutral resin. For Nissl staining, thin sections were immersed in the staining solution for 15 min (G1086, Solarbio, Beijing, China), washed with water, rapidly dehydrated with absolute ethanol, and cleared in xylene for 5 min. The sections were then mounted with neutral resin. Finally, the sections were observed using a light microscope (Nikon Eclipse E100, Tokyo, Japan) and analyzed with a 3D viewer.

[7] = Particle size and zeta potential; type: physicochemical; details: laser nanoparticle sizer Nano-ZS90
Protocol: The size distribution and zeta potential of LA-1 and loganin were determined using a laser nanoparticle sizer (Nano-ZS90, Malvern Instruments Ltd., Malvern, Worcestershire, UK).

[8] = Morphology by TEM, SEM and AFM; type: physicochemical; details: SEM, AFM, samples in deionized water, dried
Protocol: Each sample was further diluted to 0.1 mg/mL, and 10 μL was placed dropwise onto copper grids and dried at room temperature for 7 days. Transmission electron microscopy (TEM, […], Tokyo, Japan) and scanning electron microscopy (SEM, Hitachi, S-4800, Tokyo, Japan) were used to observe the morphology. In total, 1 mg of LA-1 or loganin was ultrasonically dispersed in 1 mL of deionized water. Then, 100 μL of the samples were dropped onto 10 × 10 mm mica sheets and air-dried overnight. The surface morphology was characterized by atomic force microscopy (AFM, Bruker, Multimode 8, Bruker, Billerica, Germany).

MCAO rats = experiment: MCAO cerebral ischemia-reperfusion injury model; type: in vivo, rat; details: for Neurological score (Zelonga): 22 h post-treatment, loganin 30 mg/kg, LA-1 10 mg/kg i.v.; for Neurological score (Zelonga) / Infarct area versus model (TTC staining): edaravone 3 mg/kg
Protocol: A selection of 6–8-week-old Sprague–Dawley (SD) male rats weighing 250 to 280 g were divided into five groups, with 12 rats in each group: sham group, model group (MCAO), edaravone group (3 mg/kg), LA-1 group (10 mg/kg), and loganin group (30 mg/kg). In all groups of rats, anesthesia was induced with 3% isoflurane and then maintained at 2.5% isoflurane during surgery. Briefly, a 1–2 cm incision was made along the midline of the rat’s neck to expose the right carotid artery. Then, a nylon suture (A5-243650, Beijing Cinontech Co. Ltd., Beijing, China) coated with silica gel was inserted through the external carotid artery (ECA) into the middle […], which was then occluded. In this instance, the monofilament was not inserted in the sham group. After 2 h, the nylon suture was removed to allow reperfusion, and different drugs were immediately administered to the rats via the tail vein. Additionally, the sham and model groups received an equivalent dose of distilled water, with a dosage of 2 mL/kg. Cerebral blood flow was measured using a laser speckle flow imaging system (RWD Life science Co., Ltd., RFLSI ZW, Shenzhen, China) at three distinct time points: before ischemia, 2 h after ischemia, and 22 h after reperfusion. Neurological function scores for the treatment groups were assessed blindly at 22 h post-MCAO using the ZeLonga scoring system, after which the anesthetized rats were quickly euthanized. The brain tissue was harvested and then sectioned into seven slices, with six slices subjected to 2,3,5-triphenyltetrazolium chloride (TTC) staining to calculate the brain infarct area, while the remaining slice was preserved for future use.
as §1
Paraffin sections were prepared as described for HE staining. The sections were dewaxed and antigen retrieval was performed using citric acid (pH 6.0). The sections were blocked in 0.1% Triton in PBS for 15 min. TUNEL reaction solution (TDT:dUTP:buffer = 1:5:50) was added, followed by blocking with BSA. After washing, sections were incubated with the secondary antibody (Cy3-goat anti-rabbit, GB21303, 1:300) at room temperature for 50 min. Finally, after PBS washing, the sections were stained with DAPI, mounted with an anti-fading mounting medium, and images were acquired using a fluorescence microscope (Nikon Eclipse C1, Tokyo, Japan).

[9] = 22 h reperfusion, loganin 30 mg/kg i.v.
[10] = LA-1 10 mg/kg, loganin 30 mg/kg i.v.

SMILES	Cell viability (cytotoxicity) (BEnd.3 cells [1])	Intracellular amount over time (BEnd.3 cells [2])	Cellular uptake of LA-1 relative to loganin (BEnd.3 cells [2]; 6 h incubation, n = 3)	Decrease of cellular uptake in the presence of c(RGDfK) (BEnd.3 cells [3])	Time at which plasma concentration was below the limit of detection / undetectable [4]	half-life ([4]; male, Sprague-Dawley, rat)	Brain accumulation in ischemic brain tissue [5]	Pathophysiological changes in heart, liver, spleen and kidney tissue sections [6]	polydispersity index (PDI) [7]	Particle Size ([7]; mean ± SD)	Zeta Potential ([7]; mean ± SD)	Nanostructure morphology [8]	Plasma half-life [4]	Neurological score (Zelonga) (MCAO rats)	Infarct area (TTC staining) (MCAO rats; 22 h reperfusion, LA-1 10 mg/kg, loganin 30 mg/kg i.v.)	Infarct area versus model (TTC staining) (MCAO rats; [9])	H&E staining of cortical neurons (MCAO rats; [10])	Nissl staining of neurons (MCAO rats; [10])
CC(C)[C@H](NC(=O)[C@H](CC(=O)O)NC(=O)CNC(=O)[C@H](CCCNC(=N)N)NC(=O)C1=CO[C@@H](O[C@@H]2O[C@H](CO)[C@@H](O)[C@H](O)[C@H]2O)[C@@H]2[C@@H](C)[C@@H](O)C[C@H]12)C(=O)O [LA-1, LA-Arg-Gly-Asp-Val] (X1-RGDV-OH)	no significant change	continued to accumulate	approximately 2148 fold	approximately 3 fold	90 min	~10 min	dramatically higher than that of loganin	No significant pathophysiological changes										
COC(=O)C1=CO[C@@H](O[C@@H]2O[C@H](CO)[C@@H](O)[C@H](O)[C@H]2O)[C@@H]2[C@@H](C)[C@@H](O)C[C@H]12 [Loganin]	no significant change	reached a plateau after 3 h			180 min				0.194	231.5 ± 81.23 nm	−4.16 ± 4.40 mV	irregular and unevenly dispersed	~45 min	reduction trend in neurological score but without statistically significant difference	16.843%	significant infarct area reduction	improved the morphology, though to a lesser extent than LA-1	the recovery was less pronounced compared to LA-1
CC1=NN(c2ccccc2)C(=O)C1 [edaravone, Edaravone]														reduction trend in neurological score but without statistically significant difference		significant infarct area reduction		
